Experimental data as given in ChEMBL document CHEMBL1201862, “PubChem BioAssay data set” (2004).
Active and inactive are the calls of the source.

Experiments:
[1] = target: Dual specificity tyrosine-phosphorylation-regulated kinase 1A (Rattus norvegicus, UniProt Q63470); format: biochemical, Homo sapiens
[2] = target: Dual specificity protein kinase CLK1 (Homo sapiens, UniProt P49759); assay: inhibition of human CLK1 activity – biochemical, cherry-picked samples, selectivity assay for Dyrk1A inhibitor project, dose response (AID 588811)
[3] = target: Nonstructural protein 1 (Influenza A virus, UniProt Q194T2); format: functional, Influenza A virus (A/California/07/2009(H1N1))
[4] = test system: HEK293; assay: EBV LMP1 TES2 canonical NF-kB signalling blockers – cell-based, HEK293, luciferase, cherry-pick, dose response (AID 588343); format: functional; conditions: Homo sapiens
[5] = target: Heat shock protein HSP 90-alpha (Homo sapiens, UniProt P07900); format: functional, organism-based
[6] = test system: HEK293; assay: cells; conditions: Homo sapiens
[7] = test system: HEK293; assay: cells; conditions: Homo sapiens; remark: listed apart in the source
[8] = target: T1, Endoribonuclease toxin MazF (Escherichia coli K-12, UniProt P0AE70); assay: activation of MazEF endoribonuclease cleavage – biochemical, fluorescence, single-stranded RNA substrate, uHTS hits, dose response (AID 588481); format: functional
T1 sequence (P0AE70 whole entry): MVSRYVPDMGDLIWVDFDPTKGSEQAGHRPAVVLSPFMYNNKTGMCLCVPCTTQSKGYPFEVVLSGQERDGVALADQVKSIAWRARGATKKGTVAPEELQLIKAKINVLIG

[9] = target: T1, Endoribonuclease toxin MazF; assay: substrate-only fluorescence increase artefacts – biochemical, single-stranded RNase substrate, counter-screen for MazEF activator project, dose response (AID 588502); format: functional
[10] = target: T2, Corticotropin-releasing factor receptor 2/Corticotropin-releasing factor-binding protein (Homo sapiens, UniProt P24387+Q13324); assay: activators of CRF receptor 2 with binding protein – uHTS hits, confirmation (AID 602473); format: functional; conditions: read-out: EC50_Mean
T2 sequence (Q13324 whole entry): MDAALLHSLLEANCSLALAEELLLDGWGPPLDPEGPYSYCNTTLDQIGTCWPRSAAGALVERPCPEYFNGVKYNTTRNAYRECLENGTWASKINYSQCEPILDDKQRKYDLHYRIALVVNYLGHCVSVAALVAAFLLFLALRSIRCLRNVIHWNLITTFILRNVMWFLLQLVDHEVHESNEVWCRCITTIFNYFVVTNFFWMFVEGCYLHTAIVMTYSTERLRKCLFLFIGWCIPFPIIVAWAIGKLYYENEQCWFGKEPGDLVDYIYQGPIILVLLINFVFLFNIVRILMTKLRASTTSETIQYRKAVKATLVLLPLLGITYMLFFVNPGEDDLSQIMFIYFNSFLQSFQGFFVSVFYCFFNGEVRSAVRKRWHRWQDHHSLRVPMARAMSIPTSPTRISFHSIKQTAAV
T2 sequence (P24387 whole entry): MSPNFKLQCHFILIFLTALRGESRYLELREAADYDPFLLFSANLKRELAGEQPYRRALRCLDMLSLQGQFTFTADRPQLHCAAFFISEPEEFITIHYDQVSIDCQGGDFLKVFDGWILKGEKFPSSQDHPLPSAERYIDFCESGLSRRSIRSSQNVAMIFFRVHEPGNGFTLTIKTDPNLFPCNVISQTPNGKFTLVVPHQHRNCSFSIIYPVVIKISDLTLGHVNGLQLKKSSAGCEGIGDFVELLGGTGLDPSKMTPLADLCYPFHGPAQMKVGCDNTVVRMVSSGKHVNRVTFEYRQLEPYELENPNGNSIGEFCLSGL

[11] = target: T3, Cysteine protease ATG4B (Homo sapiens, UniProt Q9Y4P1); format: functional;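 further: Fluorescence-based dose-response confirmation assay measuring inhibition of ATG4B activity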
T3 sequence (Q9Y4P1 whole entry): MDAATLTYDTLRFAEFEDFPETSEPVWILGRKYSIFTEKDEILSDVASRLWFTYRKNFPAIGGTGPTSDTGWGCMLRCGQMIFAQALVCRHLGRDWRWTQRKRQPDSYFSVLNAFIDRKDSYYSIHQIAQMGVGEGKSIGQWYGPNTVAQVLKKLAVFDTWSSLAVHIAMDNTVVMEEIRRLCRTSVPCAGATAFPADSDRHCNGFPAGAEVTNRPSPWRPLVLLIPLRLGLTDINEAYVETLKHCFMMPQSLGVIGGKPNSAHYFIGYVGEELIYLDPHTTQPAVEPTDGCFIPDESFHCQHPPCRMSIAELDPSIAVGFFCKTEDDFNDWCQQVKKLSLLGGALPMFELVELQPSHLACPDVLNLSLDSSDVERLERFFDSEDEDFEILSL

[12] = target: Phospholipase A2 (Homo sapiens, UniProt P04054); format: functional;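 further: confirmatory dose-response counterscreen on phospholipase A2, testing hits that came from an ultra-high-throughput screen for ATG4B inhibitors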
[13] = target: T4, Cytochrome P450 2D6 (Homo sapiens, UniProt P10635);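 further: CYP2D6 member of a cytochrome P450 panel assay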
[14] = target: Cytochrome P450 3A4 (Homo sapiens, UniProt P08684);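 further: CYP3A4 tested as one member of a cytochrome P450 panel screen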
[15] = target: Cytochrome P450 2C9 (Homo sapiens, UniProt P11712)
[16] = target: T5, Cytochrome P450 1A2 (Homo sapiens, UniProt P05177);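 further: PubChem cytochrome P450 panel assay, CYP1A2 panel member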
T5 sequence (P05177 whole entry): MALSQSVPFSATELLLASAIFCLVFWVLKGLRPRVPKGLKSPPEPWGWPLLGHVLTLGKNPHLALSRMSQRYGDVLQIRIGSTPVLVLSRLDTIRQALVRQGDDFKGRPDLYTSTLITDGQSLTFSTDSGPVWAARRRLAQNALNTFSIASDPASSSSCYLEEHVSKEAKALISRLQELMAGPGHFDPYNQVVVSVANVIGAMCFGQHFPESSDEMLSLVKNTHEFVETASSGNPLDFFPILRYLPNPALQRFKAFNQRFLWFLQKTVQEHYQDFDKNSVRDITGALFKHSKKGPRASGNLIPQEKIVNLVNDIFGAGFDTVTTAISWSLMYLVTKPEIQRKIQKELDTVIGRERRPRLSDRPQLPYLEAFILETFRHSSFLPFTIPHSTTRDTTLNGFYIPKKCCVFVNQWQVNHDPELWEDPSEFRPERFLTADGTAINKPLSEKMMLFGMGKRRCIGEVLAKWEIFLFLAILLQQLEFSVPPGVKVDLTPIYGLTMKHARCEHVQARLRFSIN

[17] = target: T4, Cytochrome P450 2D6; remark: listed apart in the source
[18] = test system: BJ; assay: BJ-TERT fibroblast viability loss – cell-based, RAS-independent, luminescence, dose response (AID 1933); format: functional; conditions: Homo sapiens
[19] = target: SUMO-activating enzyme (Homo sapiens, UniProt Q9UBT2); assay: blockers of UBC9-mediated SUMO conjugation – biochemical, AlphaScreen, SUMOylation inhibitor project, confirmation (AID 2018); format: functional
[20] = test system: BJ; assay: cells; format: functional, cell-based; conditions: Homo sapiens
[21] = test system: BJ; assay: BJ-TERT-LT-ST fibroblast viability loss – cell-based, RAS-independent, luminescence, dose response (AID 1935); format: functional; conditions: Homo sapiens;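 further: BJ fibroblasts immortalized with TERT plus LT and ST oncogenes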
[22] = DRD fibroblast viability loss – cell-based, non-viral oncogenic, luminescence, dose response (AID 1934); format: functional; conditions: Homo sapiens
[23] = cells; format: functional
[24] = target: T6, Bcl-2-related protein A1 (Mus musculus, UniProt Q07440); format: functional;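 further: confirmatory dose–response counterscreen on Bfl-1, used to check hits from a UBC13 polyubiquitin inhibitor campaign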
T6 sequence (Q07440 whole entry): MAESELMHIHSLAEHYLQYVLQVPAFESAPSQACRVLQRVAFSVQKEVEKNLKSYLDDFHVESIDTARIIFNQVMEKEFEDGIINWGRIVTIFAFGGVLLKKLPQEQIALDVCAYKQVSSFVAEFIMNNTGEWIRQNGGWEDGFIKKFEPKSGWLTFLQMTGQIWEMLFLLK

[25] = target: T7, Ubiquitin-conjugating enzyme E2 N (Homo sapiens, UniProt P61088); format: functional
T7 sequence (P61088 whole entry): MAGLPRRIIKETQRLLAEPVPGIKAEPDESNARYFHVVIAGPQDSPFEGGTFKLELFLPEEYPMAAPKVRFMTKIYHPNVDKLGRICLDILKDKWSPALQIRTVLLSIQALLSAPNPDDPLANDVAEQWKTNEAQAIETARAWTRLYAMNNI

[26] = target: T7, Ubiquitin-conjugating enzyme E2 N; format: functional; remark: listed apart in the source
[27] = target: Cytochrome P450 2C19 (Homo sapiens, UniProt P33261); assay: Cytochrome panel assay with activity outcomes. Panel member name: p450-cyp2c19 Compounds with AC50 equal or less than 10 uM are considered active; format: functional
Cytochrome P450 2C19, sequence (P33261 whole entry): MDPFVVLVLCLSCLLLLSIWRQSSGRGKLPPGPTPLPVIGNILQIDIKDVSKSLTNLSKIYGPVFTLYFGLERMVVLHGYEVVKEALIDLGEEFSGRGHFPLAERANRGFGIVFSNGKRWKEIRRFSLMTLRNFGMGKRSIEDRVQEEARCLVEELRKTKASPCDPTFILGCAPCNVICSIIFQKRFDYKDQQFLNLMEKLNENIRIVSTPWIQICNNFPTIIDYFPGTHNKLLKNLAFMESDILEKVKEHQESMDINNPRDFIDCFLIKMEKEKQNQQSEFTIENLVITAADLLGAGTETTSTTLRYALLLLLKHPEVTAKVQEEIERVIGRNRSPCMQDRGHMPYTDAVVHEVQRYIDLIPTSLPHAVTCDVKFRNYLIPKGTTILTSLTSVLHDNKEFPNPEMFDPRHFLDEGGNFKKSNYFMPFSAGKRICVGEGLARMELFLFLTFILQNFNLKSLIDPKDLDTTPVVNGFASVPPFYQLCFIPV

T4 sequence (P10635 whole entry): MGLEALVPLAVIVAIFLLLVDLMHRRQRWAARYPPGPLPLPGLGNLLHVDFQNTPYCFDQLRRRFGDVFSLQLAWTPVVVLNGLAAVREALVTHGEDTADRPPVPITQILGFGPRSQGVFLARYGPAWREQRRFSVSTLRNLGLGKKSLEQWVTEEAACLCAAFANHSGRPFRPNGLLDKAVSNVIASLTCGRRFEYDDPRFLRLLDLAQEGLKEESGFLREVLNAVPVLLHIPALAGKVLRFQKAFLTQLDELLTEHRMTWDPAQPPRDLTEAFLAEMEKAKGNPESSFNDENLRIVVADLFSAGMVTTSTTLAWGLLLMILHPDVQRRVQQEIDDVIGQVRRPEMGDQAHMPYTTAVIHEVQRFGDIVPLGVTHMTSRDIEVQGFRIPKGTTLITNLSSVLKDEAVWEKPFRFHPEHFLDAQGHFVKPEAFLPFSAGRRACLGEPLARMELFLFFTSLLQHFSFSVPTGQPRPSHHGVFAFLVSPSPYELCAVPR
Dual specificity protein kinase CLK1, sequence (P49759 whole entry): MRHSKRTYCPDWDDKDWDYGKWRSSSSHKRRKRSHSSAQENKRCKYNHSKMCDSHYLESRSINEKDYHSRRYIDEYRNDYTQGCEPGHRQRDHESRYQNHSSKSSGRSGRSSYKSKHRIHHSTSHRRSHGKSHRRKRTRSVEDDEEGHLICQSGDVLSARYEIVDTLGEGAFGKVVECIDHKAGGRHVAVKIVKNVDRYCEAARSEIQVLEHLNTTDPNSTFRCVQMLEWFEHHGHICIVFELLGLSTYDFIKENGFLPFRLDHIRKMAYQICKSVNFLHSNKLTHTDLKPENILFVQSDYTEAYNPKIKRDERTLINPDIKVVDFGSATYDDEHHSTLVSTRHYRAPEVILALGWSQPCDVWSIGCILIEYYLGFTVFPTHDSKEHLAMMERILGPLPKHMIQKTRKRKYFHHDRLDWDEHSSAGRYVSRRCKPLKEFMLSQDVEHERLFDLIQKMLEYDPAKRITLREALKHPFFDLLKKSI
Phospholipase A2, sequence (P04054 whole entry): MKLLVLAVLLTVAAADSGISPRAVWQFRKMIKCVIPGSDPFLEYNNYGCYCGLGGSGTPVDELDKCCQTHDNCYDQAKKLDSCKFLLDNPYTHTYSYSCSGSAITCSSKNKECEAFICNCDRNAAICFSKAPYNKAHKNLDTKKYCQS
Cytochrome P450 3A4, sequence (P08684 whole entry): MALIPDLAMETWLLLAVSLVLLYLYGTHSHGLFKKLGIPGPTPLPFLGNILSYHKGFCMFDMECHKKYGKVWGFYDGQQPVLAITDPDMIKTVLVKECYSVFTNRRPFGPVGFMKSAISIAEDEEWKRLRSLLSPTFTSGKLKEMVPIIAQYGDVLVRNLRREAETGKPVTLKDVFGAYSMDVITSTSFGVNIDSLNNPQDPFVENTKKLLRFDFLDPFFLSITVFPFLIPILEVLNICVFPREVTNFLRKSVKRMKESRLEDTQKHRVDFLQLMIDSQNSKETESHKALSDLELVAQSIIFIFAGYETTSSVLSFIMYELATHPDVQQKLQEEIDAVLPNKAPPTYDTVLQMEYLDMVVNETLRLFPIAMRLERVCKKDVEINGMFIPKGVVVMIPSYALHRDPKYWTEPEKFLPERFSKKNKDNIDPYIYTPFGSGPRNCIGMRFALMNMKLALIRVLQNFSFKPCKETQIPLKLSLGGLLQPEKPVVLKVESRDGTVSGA
Cytochrome P450 2C9, sequence (P11712 whole entry): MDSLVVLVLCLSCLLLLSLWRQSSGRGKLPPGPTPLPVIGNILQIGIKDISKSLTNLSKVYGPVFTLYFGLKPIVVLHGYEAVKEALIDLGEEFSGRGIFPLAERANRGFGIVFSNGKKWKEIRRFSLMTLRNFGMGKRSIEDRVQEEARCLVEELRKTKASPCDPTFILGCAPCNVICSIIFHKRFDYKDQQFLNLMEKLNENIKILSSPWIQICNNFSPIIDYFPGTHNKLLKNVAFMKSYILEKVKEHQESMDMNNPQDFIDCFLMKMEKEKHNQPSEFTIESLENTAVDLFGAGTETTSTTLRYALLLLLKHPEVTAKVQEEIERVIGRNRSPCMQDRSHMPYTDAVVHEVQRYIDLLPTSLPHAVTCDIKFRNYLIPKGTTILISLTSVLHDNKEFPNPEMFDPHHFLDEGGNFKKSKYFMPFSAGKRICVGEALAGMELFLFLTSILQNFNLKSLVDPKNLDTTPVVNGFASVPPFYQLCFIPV
Nonstructural protein 1, sequence (Q194T2 whole entry): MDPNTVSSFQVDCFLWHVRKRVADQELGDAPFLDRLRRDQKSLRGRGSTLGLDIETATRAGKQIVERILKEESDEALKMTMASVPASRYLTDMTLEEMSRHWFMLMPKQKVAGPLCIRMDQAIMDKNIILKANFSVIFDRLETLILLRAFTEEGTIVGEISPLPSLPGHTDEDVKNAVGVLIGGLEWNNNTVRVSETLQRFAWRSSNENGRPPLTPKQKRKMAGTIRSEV
SUMO-activating enzyme, sequence (Q9UBE0 whole entry): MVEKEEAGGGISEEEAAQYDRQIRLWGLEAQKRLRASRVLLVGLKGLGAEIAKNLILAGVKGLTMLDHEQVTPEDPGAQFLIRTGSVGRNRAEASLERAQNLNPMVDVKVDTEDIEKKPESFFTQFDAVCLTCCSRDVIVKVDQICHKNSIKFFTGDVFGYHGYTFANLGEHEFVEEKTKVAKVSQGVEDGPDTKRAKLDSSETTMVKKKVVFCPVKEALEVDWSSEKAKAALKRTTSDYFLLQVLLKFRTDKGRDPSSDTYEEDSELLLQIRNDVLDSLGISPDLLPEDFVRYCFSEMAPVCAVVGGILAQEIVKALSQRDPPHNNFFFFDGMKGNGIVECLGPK
SUMO-activating enzyme, sequence (Q9UBT2 whole entry): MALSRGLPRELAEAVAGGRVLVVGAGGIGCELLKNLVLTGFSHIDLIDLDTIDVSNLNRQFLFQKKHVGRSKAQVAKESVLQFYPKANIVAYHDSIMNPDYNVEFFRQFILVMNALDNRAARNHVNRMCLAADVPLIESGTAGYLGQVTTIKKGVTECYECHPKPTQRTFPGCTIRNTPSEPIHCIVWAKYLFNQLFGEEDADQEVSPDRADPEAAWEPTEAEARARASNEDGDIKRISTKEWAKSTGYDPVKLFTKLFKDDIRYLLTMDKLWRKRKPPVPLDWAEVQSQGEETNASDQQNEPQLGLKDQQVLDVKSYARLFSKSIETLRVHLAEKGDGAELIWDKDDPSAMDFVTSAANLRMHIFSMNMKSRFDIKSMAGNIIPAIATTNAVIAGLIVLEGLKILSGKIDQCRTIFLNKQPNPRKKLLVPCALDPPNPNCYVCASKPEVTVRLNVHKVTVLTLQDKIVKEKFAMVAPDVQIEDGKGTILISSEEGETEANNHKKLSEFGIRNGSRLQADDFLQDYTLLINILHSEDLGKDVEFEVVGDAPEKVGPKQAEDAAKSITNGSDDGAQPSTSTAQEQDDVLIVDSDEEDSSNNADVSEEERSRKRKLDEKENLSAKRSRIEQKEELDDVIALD

With `Cc1cc2c(ccc3nonc32)[nH]1` the AC50 [1] was 5.79 µM (active).
For `Clc1ccc(CNc2nccc(-c3ccc4[nH]ncc4c3)n2)cc1Cl`, the AC50 [2] was 0.00677 µM (active).
For `CC(=NNC(S)=Nc1ccccc1Cl)c1ccccn1`, the IC50 [3] was 21.7 µM (active), the AC50 [4] was 0.0577 µM (active) and the AC50 [5] was 3.46 µM (active). For the same molecule, the EC50 [6] was > 59.6 µM (inactive) and the EC50 [7] was > 59.6 µM (inactive).
In the case of `O=[N+]([O-])c1ccc(-c2cn3nc(-c4ccccc4)c(-c4ccccc4)nc3n2)cc1`, the EC50 [8] is reported as > 99 µM (inactive), the EC50 [9] is reported as > 99 µM (inactive) and the EC50 [10] is reported as > 53 µM (inactive).
With `Fc1ccc(NCc2ccccc2F)cc1Cl` the IC50 [11] was 13.3 µM (active), the IC50 [12] was 8.79 µM (active) and the AC50 [13] was 17.8 µM (inconclusive). For the same molecule, the AC50 [14] was 20 µM (inconclusive) and the AC50 [15] was 31.6 µM (inconclusive).
For `CCN=C=NCCCN(C)C`, the AC50 [16] was 5.01 µM (inconclusive) and the AC50 [17] was “inconclusive”.
For `O=C(N/N=C/c1ccc([N+](=O)[O-])o1)c1cc(-c2ccc(-c3ccccc3)cc2)nc2ccccc12`, the EC50 [18] was 9.46 µM (inconclusive), the IC50 [19] was 15.4 µM (active) and the EC50 [20] was 4.52 µM (inconclusive). The EC50 [21] was 11.2 µM (active) and the EC50 [22] was 8.03 µM (inconclusive).
For `COc1cccc(NC(=O)c2sc(NC(=O)c3ccncc3)nc2C)c1`, the AC50 [2] was 22.2 µM (active) and the AC50 [1] was 32.4 µM (active).
In the case of `O=C(O)COc1ccc2occ(C(=O)c3ccccc3)c2c1`, the IC50 [23] is reported as 12.3 µM (active) and the AC50 [1] is reported as 6.49 µM (active).
With `N=C1/C(=C/c2ccc(O)cc2)C(=O)N=C2SN=C(SCc3ccccc3)N12` the IC50 [11] was 20.4 µM (inactive) and the IC50 [12] was 13.3 µM (active).
For `Clc1ccc(CNc2ncncc2-c2ccc3c(c2)OCO3)cc1`, the AC50 [2] was 10 µM (active).
With `COc1ccc(N(C(=O)c2snc(C(N)=O)c2N)C(C(=O)NC2CCCC2)c2ccco2)cc1OC` (centres undefined) the IC50 [24] was > 20 µM (inactive), the IC50 [25] was 12 µM (active) and the IC50 [26] was 7.43 µM (active).
For `Cn1c(=O)c2nc(CCCCc3nc4ccccc4[nH]3)[nH]c2n(C)c1=O`, the AC50 [27] was “inconclusive” and the AC50 [17] was “inconclusive”.
